The record followed here is article PMC12578881, “Pan-cancer Myc modulator that targets Myc-α-tubulin interaction to drive selective mitotic catastrophe” (Scientific Reports, 2025).

Assay [1] has as its target T1, c-Myc Micro-Tag (Myc-MicroTag) (Homo sapiens, UniProt P01106).
T1 construct: 15-residue Micro-Tag at C-terminus; transiently expressed in HEK293; Triton X-100 lysate
Nature of the assay: Micro-Tag thermal-shift target engagement (enzyme complementation). In kind it is biochemical.

The target of assay [2] is T2, recombinant Myc protein (full length c-Myc) (Homo sapiens, UniProt P01106).
T2 construct: full length recombinant protein, gift of A. Chinnaiyan
Nature of the assay: competitive fluorescence polarization against 10074-G5. In kind it is binding. As to conditions: 10 µM Myc, 10 µM 10074-G5, DL78 20-60 µM, 30 min room temperature; site unproven, competitive or allosteric. Background: Fluorescence polarisation rises when a labelled molecule tumbles more slowly, as on binding a larger partner.

Structures are written as SMILES.

T1 sequence (P01106 whole entry): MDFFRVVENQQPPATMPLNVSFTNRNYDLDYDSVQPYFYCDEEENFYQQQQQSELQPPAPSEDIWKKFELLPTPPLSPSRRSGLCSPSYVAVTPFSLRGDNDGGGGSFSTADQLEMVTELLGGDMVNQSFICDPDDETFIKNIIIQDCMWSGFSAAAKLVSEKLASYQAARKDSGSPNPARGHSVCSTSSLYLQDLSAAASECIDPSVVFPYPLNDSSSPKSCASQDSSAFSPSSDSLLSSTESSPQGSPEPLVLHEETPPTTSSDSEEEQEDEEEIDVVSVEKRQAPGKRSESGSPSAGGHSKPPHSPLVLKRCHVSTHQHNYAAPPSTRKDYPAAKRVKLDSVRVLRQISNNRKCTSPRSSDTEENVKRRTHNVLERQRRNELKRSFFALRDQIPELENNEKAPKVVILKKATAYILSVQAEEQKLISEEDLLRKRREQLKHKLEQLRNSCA
T2 sequence (P01106 whole entry): as above

Turning to `COc1ccc2oc(C(=O)c3c(C)oc4ccc(OC)cc34)cc2c1` [DL78, (5-methoxy-2-methylbenzofuran-3-yl)(5-methoxybenzofuran-2-yl)methanone], in assay [1], the EC50 came out at 1800 nM. In addition, the “competitive fluorescence polarization against 10074-G5” value in assay [2] is on record as “DL78 competed with 10074-G5 in a dose dependent manner”.

The EC50 is the concentration that produces a half-maximal response.
